In the METLIN SMRT retention time set (Domingo-Almenara et al. 2019):

Assay: gradient 5% acetonitrile 3 min, to 50% in 2 min, to 85% in 15 min, held 3 min, 100 µL/min
Settings: column: Zorbax Extend-C18 2.1 x 50 mm; eluents: water / acetonitrile, 0.1% formic acid
Summary of the method: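 The system's dead and dwell volumes were 40 μL and 900 μL, with a Zorbax Extend-C18 column (2.1 × 50 mm, 1.8 μm) run at 100 μL/min in water and acetonitrile containing 0.1% formic acid each. Pure standards were analyzed in mixtures of ~100 molecules by HPLC–quadrupole time-of-flight mass spectrometry in positive and negative ionization mode. Retention time was assigned from computationally picked, manually inspected adduct peaks.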

SMILES | RP-LC retention time [s]
CC(C)c1ccc(S(=O)(=O)N(CC(=O)N2CCNCC2)CC(C)c2ccccc2)cc1 (stereo not given) | 772
Cn1cccc1C(=O)N1CC[C@H](n2c(=O)n(C)c3cccnc32)C1 | 695
CCOCCCNC(=O)c1c2c(cn(-c3ccc(F)cc3)c1=O)C(=O)CC(C)(C)C2 | 859
O=C(c1ccccc1F)N1CCCCC1c1nncn1CC1CC1 (stereo not given) | 698
COCCCNC(=O)c1cc2c(n(-c3ccc(C(C)C)cc3)c1=O)CCCC2=O | 882
COc1cccc2c1OC1(C)CC2NC(=O)N1c1cccc(C(=O)N2CCN(c3ccccn3)CC2)c1 (stereo not given) | 588
Cc1cc(OCC(=O)N2CCC3(O)CCCCC3C2)c2c3c(c(=O)oc2c1)CCCC3 (stereo not given) | 859
C=C1C(=O)O[C@@H]2[C@H]3O[C@]3(C)CCC=C(C)CC[C@@H]12 | 844
Cc1cc(NC(=O)N2C[C@@H](F)C[C@H]2C(=O)N2CCCCC2)ccc1Br | 824
O=C(Cc1csc(NC(=O)NC2CCCCC2)n1)NCc1c(F)cccc1F | 737
Cc1ccc(NC(=O)c2nnc(CCCC(=O)NCCc3c[nH]c4ccc(C)cc34)s2)cc1 | 946
COc1ccc(OC)c(-c2csc(-c3nnn(-c4ccc(F)cc4)c3N)n2)c1 | 1090
CCOC(=O)c1[nH]c(C)c(CCC(=O)N2CCC(C(=O)NCc3ccc4c(c3)OCO4)CC2)c1C | 764
COc1cc2c(cc1OC)CN(CCc1ccc(NC(=O)c3cc(OC)c(OC)cc3NC(=O)c3cnc4ccccc4c3)cc1)CC2 | 777
COc1ccc(NC(=O)C2CN(S(=O)(=O)c3cccnc3)CC23CCCCC3)cc1F (stereo not given) | 900
COc1ccc(CCNC(=O)Nc2nnc(SC)s2)cc1 | 718

SMILES | RP-LC retention time [s]
CC12COC3(C(=O)Nc4ccc(F)cc4)CC1CCC32C (stereo not given) | 1030
Cc1ccc(NC(=O)Nc2nccn(-c3cccc(F)c3)c2=O)cc1C | 1020
Cc1ccc(S(=O)(=O)N2C(=O)CCC2C(=O)Nc2ccc(C)c(F)c2)cc1C (stereo not given) | 1020
CC(C)(C)OC(=O)N1CCN(c2ncc(S(=O)(=O)c3ccc(Cl)cc3)c(N)n2)CC1 | 1060
COCC(C)NC(=O)c1cc2c(s1)N(CC1CC1)CCCC2 (stereo not given) | 976
CCN(CC)c1nc(-c2ccccc2F)nc2ccccc12 | 700
COc1ccc(CNC(=O)Cn2cnc3c(sc4nc(-c5ccccc5)ccc43)c2=O)cc1 | 950
Cc1ccc(CN2CCC(CNC(=O)c3cc(=O)n(C)c4c3c(=O)n(C)c(=O)n4C)CC2)cc1 | 625
Cc1ccc2c(=O)c(C(=O)N3CCC(C)CC3)cn(CC(=O)NC3CCCCC3)c2n1 | 762
O=C(c1cncc(Br)c1)N1CCN(C(=O)c2cc(-c3ccncc3)n[nH]2)CC1 | 578
Cc1ccnc(Nc2nc(-c3cc(C)ccc3C)cs2)c1 | 882
Cc1nc([C@@H]2CN(C(=O)CCc3c(C)noc3C)C[C@H]2C(N)=O)n[nH]1 | 569
Cc1cc(N2CCOCC2)nc(N2CCN(C(=O)c3ccc(C)c(C)c3)CC2)n1 | 646
Cc1ccc2c(c1)C(=O)NC1(CCN(C(=O)c3ccc(C(F)(F)F)cc3)CC1)N2C | 871
Cc1noc(C)c1S(=O)(=O)N1CCC(Cc2nncn2-c2ccccc2)CC1 | 780

Next, values leading:

RP-LC retention time [s] | SMILES
814 | Cn1ncc(NC(=O)c2ccc(Br)cc2)c(N2CCOCC2)c1=O
954 | CC(C)CCNC(=O)C1CCCN(c2nc3ccsc3c(=O)n2Cc2ccc(F)cc2)C1 (stereo not given)
538 | Cn1cc(OCc2ccccc2)c(=O)cc1C(=O)N1CCN(c2ccccn2)CC1
1170 | Cc1ccc(Cn2c(=O)c(N3CCCC(C(=O)NCc4cccs4)C3)nc3ccccc32)cc1 (stereo not given)
717 | CCCn1c(=O)c(C)nc2cc(-c3noc(-c4cccc(N(C)C)c4)n3)ccc21
739 | CCc1ccc(CNC(=O)Cc2nnc(-c3cnccn3)o2)cc1
749 | O=C(NCc1cccc(Cl)c1)c1cccn1-c1cccnc1
642 | Cc1cc(NC(=O)Nc2ccc3nc(N4CCN(C)CC4)cc(C)c3c2)ccc1Br
804 | Cc1ccn2cc(C(=O)NC3CCN(Cc4ccccc4)CC3)nc2c1
824 | Cc1cc(C)cc(C(=O)Nc2cnc(N3CCOCC3)nc2)c1
822 | Cc1ccc(CN2C[C@]34C=C[C@H](O3)[C@@H](C(=O)NCc3ccccc3)[C@H]4C2=O)cc1
690 | O=C(c1ccc(OCC2CCCN(C(=O)c3ccoc3)C2)cc1)N1CCOCC1 (stereo not given)
680 | O=C(NCc1ccccc1F)C1CCCN(c2cnc3nccnc3c2)C1 (stereo not given)
684 | O=C(Cc1nnc(-c2ccccc2)o1)NCC1CC1
689 | Cc1nn(-c2ccc(C(=O)N3CCOCC3)cc2)c2c1C(=O)CC(C)(C)C2
961 | COc1cccc(-c2noc(C3CCCN3C(=O)Nc3ccccc3)n2)c1 (stereo not given)
1030 | Cc1cccc(-c2noc(CN3C(=O)COc4ccccc43)n2)c1

RP-LC retention time [s] | SMILES
764 | CCn1nccc1C(=O)NC1CCN(C2=NS(=O)(=O)C(c3ccccc3)=C2C)CC1
1050 | COc1ccc(N2CC(c3noc(-c4cccc(OC(F)(F)F)c4)n3)CC2=O)cc1 (stereo not given)
1010 | Cc1ccc2c(c1)N(C(=O)Cn1c(=O)cc(C(=O)N3CCCCC3)c3ccccc31)CCO2
596 | COc1ccc(-n2c(=O)n(C)c(=O)c3cc(C(=O)NCc4ccncc4)cnc32)cc1
598 | Cc1cccc(NC(=O)N2CCCC2c2nc(-c3cccc(C)c3)no2)c1 (stereo not given)
761 | Cc1ccn2cc(-c3ccc(NC(=O)CCC4CCCCC4)cc3)nc2n1
781 | O=C(NCc1ccccc1F)C1CCCN(c2nnc3ccc(C(F)(F)F)cn23)C1 (stereo not given)
889 | O=C(NCc1nc(-c2ccc(N3CCCC3)cc2)no1)c1ccco1
941 | CC(=O)N1c2ccc(S(=O)(=O)N3CCCCC3)cc2CC1C(=O)NCCc1ccc(C)cc1 (stereo not given)
629 | O=C(NCCn1nc(-c2cccs2)ccc1=O)c1ccc2ncsc2c1
685 | CSc1cccc(NC(=O)CN2CCC3(CC2)N=C(c2cccc(F)c2)C(=O)N3)c1
944 | O=C(NCCCc1ccccc1)C1CCCN(C(=O)Cc2cccc3ccccc23)C1 (stereo not given)
734 | CCCNc1nc(-c2ccc(OC)cc2)nc2ccccc12
735 | O=C(NC(c1ccccc1)c1nnc(N2CCOCC2)o1)C1CCCCC1 (stereo not given)
884 | COCCCn1c(=O)c2ccccc2n(Cc2nc(-c3ccc(OC)cc3OC)no2)c1=O
853 | Cc1ccc(C2Cn3cnc(C(=O)N4CCC(C(=O)NCCCc5ccccc5)CC4)c3CO2)cc1 (stereo not given)
950 | COc1cccc(-c2nc(N3CCCCC3)ncc2C(=O)O)c1
